Patent publication US12714708B2, “Compounds with anti-tumor activity against cancer cells bearing HER2 exon 19 mutations” (Board of Regents, The University of Texas System, priority 2019, dated 2026)
Each block holds one compound with its values, some of them ahead of it.

Tests used:
[1] = system: Ba/F3 HER2 L755P mutant cells; experiment: Cell Titer Glo cell viability, Ba/F3 cells expressing HER2 L755P; type: cell-based; conditions: for inhibition of cell viability: Ba/F3 cells expressing HER2 L755P protein; for IC50: Mus musculus, BaF3, Ba/F3 HER2 L755P mutant cells
Protocol: Ba/F3 cells expressing exon 19 point mutation L755P were generated.
Cell line generation and IL-3 deprivation: Ba/F3 cell line, was cultured in complete RPMI-1640 (R8758; Sigma Life Science) media supplemented with L-glutamine, 10% heat inactivated FBS (Gibco), 1% penicillin/streptomycin (Sigma Life Science), and 10 ng/ml mouse IL-3 (R&D systems) under sterile conditions. Stable cell lines were generated by retroviral transduction of Ba/F3 cell line for 12 hours. Retroviruses were generated by transfecting pBabe-Puro based vectors into the Phoenix 293T ampho packing cell line (Orbigen) using Lipofectamine 2000 (Invitrogen). 72 hours after transduction, 2 μg/ml puromycin (Invitrogen) was added to the media. After 5 days of selection, cells were stained with FITC-HER2 (Biolegend) and sorted via FACS. Cell lines were then grown in the absence of IL-3 for 15 days and cell viability was determined every 3 days using the Cell Titer Glo assay (Progema). Resulting stable cell lines were maintained in complete RPMI-1640 media described above without IL-3. […] To generate HER2 […] cell lines, cells were transduced with c.2264T>C (created from Bioinnovatise from pBabe-puro HER WT from Addgene (#40978)).
(§1) Cell viability assay and IC50 estimation: Cell viability was determined using the Cell Titer Glo assay (Promega) as previously described (Robichaux et al., 2018). Briefly, 2000-3000 cells per well were plated in 384-well plates (Greiner Bio-One) in technical triplicate. Cells were treated with seven different concentrations of tyrosine kinase inhibitors or vehicle alone at a final volume of 40 μL per well. After 3 days, 11 μL of Cell Titer Glo was added to each well. Plates were shaken for 15 minutes, and bioluminescence was determined using a FLUOstar OPTIMA multi-mode micro-plate reader (BMG LABTECH). Bioluminescence values were normalized to DMSO treated cells, and normalized values were plotted in GraphPad Prism using non-linear regression fit to normalized data with a variable slope. IC50 values were calculated by GraphPad Prism at 50% inhibition.

[2] = system: CW-2 cells (HER2 L755S) xenografts; experiment: CW-2 cell line xenograft tumor growth study; type: in vivo, mice; conditions: for Tukey's multiple comparisons test Summary: Poziotinib 5 mg/kg
Protocol: In vivo xenograft studies: CW-2 cell line xenografts were created by injecting 1×10^6 cells in 50% matrigel into 6-week-old female nu/nu nude mice. When tumors reached 350 mm^3 mice were randomized into 4 groups: 20 mg/kg afatinib, 5 mg/kg poziotinib, 30 mg/kg neratinib, or vehicle control (0.5% Methylcellulose, 2% Tween-80 in dH2O). Tumor volumes were measured three times per week. Mice received drug Monday-Friday (5 days per week), but began dosing on Wednesday allowing for a 2-day holiday after the first 3 days of dosing.

[3] = system: CW-2 colorectal cells; experiment: Cell viability of CW-2 cells treated with inhibitors; type: cell-based, human; conditions: various concentrations, 72 hours (FIG. 6A)
Protocol: A mouse study was performed with mice inoculated with CW-2 cells treated with poziotinib, afatinib, or neratinib. […] Thus, poziotinib, as well as structurally similar inhibitors, are potent inhibitors of HER2 exon 19 mutations and can be used as therapeutics to overcome de novo drug resistance.
as §1
Human cell lines: MCF10A cells were purchased from ATCC and were cultured in DMEM/F12 media supplemented with 1% penicillin/streptomycin, 5% horse serum (sigma), 20 ng/ml EGF, […] hydrocortisone, and 10 ug/ml insulin. […]

[4] = system: HER2 exon 19 mutant Ba/F3 cell lines; experiment: Cell Titer Glo cell viability, Ba/F3 cell lines expressing HER2 exon 19 mutations; type: cell-based
Protocol: In addition, several other HER2 exon 19 mutations including D769Y, D769N, D769H, L755S, and R678Q were tested for their sensitivity to different TKIs including poziotinib.
Cell viability of stable Ba/F3 cell lines expressing HER2 exon 19 mutations grown in IL-3 free conditions was measured for 14 days. Cell viability was determined every 3 days by the Cell Titer Glo assay (FIG. 4). […] Average IC50 values of Ba/F3 cells expressing L755S or L755P with indicated inhibitors were measured (FIG. 5C).
Cell line generation and IL-3 deprivation: Ba/F3 cell line, was cultured in complete RPMI-1640 (R8758; Sigma Life Science) media supplemented with L-glutamine, 10% heat inactivated FBS (Gibco), 1% penicillin/streptomycin (Sigma Life Science), and 10 ng/ml mouse IL-3 (R&D systems) under sterile conditions. Stable cell lines were generated by retroviral transduction of Ba/F3 cell line for 12 hours. Retroviruses were generated by transfecting pBabe-Puro based vectors into the Phoenix 293T ampho packing cell line (Orbigen) using Lipofectamine 2000 (Invitrogen). 72 hours after transduction, 2 μg/ml puromycin (Invitrogen) was added to the media. After 5 days of selection, cells were stained with FITC-HER2 (Biolegend) and sorted via FACS. Cell lines were then grown in the absence of IL-3 for 15 days and cell viability was determined every 3 days using the Cell Titer Glo assay (Progema). Resulting stable cell lines were maintained in complete RPMI-1640 media described above without IL-3. Cell line identity was confirmed by DNA fingerprinting via short tandem repeats using the PowerPlex 1.2 kit (Promega). Fingerprinting results were compared with reference fingerprints maintained by the primary source of the cell line. All cell lines were free of mycoplasma. […]
Cell viability assay and IC50 estimation: Cell viability was determined using the Cell Titer Glo assay (Promega) as previously described (Robichaux et al., 2018). […] Plates were shaken for 15 minutes, and bioluminescence was determined using a FLUOstar OPTIMA multi-mode micro-plate reader (BMG LABTECH). […]

[5] = Day 10, vs. Vehicle, Afatinib 20 mg/kg, Neratinib 30 mg/kg, two-way ANOVA of FIG. 6B
[6] = Day 13, vs. Vehicle, Afatinib 20 mg/kg, Neratinib 30 mg/kg, two-way ANOVA of FIG. 6B

Compound: Cc1cc(C(=O)Nc2nc3cccc(Cl)c3n2[C@@H]2CCCCN(C(=O)/C=C/CN(C)C)C2)ccn1 [EGF-816]
inhibition of cell viability [1]: failed to inhibit cell viability

IC50 [1]: 13 nM
Compound: CN(C)C/C=C/C(=O)Nc1cc2c(Nc3ccc(F)c(Cl)c3)ncnc2cc1O[C@H]1CCOC1 [afatinib]

Compound: CS(=O)(=O)CCNCc1ccc(-c2ccc3ncnc(Nc4ccc(OCc5cccc(F)c5)c(Cl)c4)c3c2)o1 [lapatinib]
inhibition of cell viability [1]: failed to inhibit cell viability

Compound: CCOc1cc2ncc(C#N)c(Nc3ccc(OCc4ccccn4)c(Cl)c3)c2cc1NC(=O)/C=C/CN(C)C [neratinib]
Tukey's multiple comparisons test Summary [2, 5]: ns
Tukey's multiple comparisons test Summary [2, 6]: ns
Tukey's multiple comparisons test Summary ([2]; Day 15, vs. Vehicle, Afatinib 20 mg/kg, Neratinib 30 mg/kg, two-way ANOVA of FIG. 6B): ns
Tukey's multiple comparisons test Summary ([2]; Day 17, vs. Vehicle, Afatinib 20 mg/kg, Neratinib 30 mg/kg, two-way ANOVA of FIG. 6B): ns

IC50 [1]: 3 nM
IC50 values as compared to the other inhibitors tested ([4]; Ba/F3 cells expressing HER2 exon 19 mutations incl. L755S or L755P, 72 hours of drug treatment): lowest IC50 values
Compound: C=CC(=O)N1CCC(Oc2cc3c(Nc4ccc(Cl)c(Cl)c4F)ncnc3cc2OC)CC1 [poziotinib, 1-[4-[4-(3,4-dichloro-2-fluoroanilino)-7-methoxyquinazolin-6-yl]oxypiperidin-1-yl]prop-2-en-1-one]
decrease in cell viability [3]: highest decrease in cell viability
inhibition of cell viability [1]: inhibition of cell viability
Tukey's multiple comparisons test Summary ([2]; Day 10, vs. Afatinib (20 mg/kg)): ns
Tukey's multiple comparisons test Summary [2, 5]: ns
Tukey's multiple comparisons test Summary ([2]; Day 13, vs. Afatinib (20 mg/kg)): ns
Tukey's multiple comparisons test Summary ([2]; Day 13, vs. Neratinib (30 mg/kg), Afatinib 20 mg/kg): ns
Tukey's multiple comparisons test Summary [2, 6]: ns
Tukey's multiple comparisons test Summary ([2]; Day 15, vs. Afatinib (20 mg/kg)): ns
Tukey's multiple comparisons test Summary ([2]; Day 17, vs. Afatinib (20 mg/kg)): ns
Tumor growth ([2]; mice inoculated with CW-2 cells, 5 mg/kg (FIG. 6C)): significantly decreased
concentrations inhibiting HER2 exon 19 mutants ([4]; HER2 exon 19 mutants): low nanomolar concentrations
inhibition of growth of mutant cells ([4]; HER2 exon 19 mutations D769Y, D769N, D769H, L755S, R678Q (FIG. 3)): inhibited the growth of these mutant cells
